Reference: US7279473B2, “Pyrazolopyridazine derivatives” (SmithKline Beecham Corporation, priority 2001, dated 2007)

Experiments:
[1] = target: Cyclin D1 and cyclin-dependent kinase 4 (CDK4) (Homo sapiens, UniProt P11802); test: CDK4 substrate phosphorylation assay (phosphorylation of GST-Rb protein, [33P]-ATP); type: biochemical; settings: read-out: CDK4 inhibition
Method: The compounds of the present invention have valuable pharmacologic properties. Different compounds from this class are particularly effective at inhibiting CDK2 and/or CDK4 enzymes at concentrations, which range from 0.0001 to 1 μM and additionally show specificity relative to other kinases. Substrate phosphorylation assays were carried out as follows.
Cyclin D1 and cyclin-dependent kinase 4 were expressed utilizing a baculovirus expression system. The catalytic activity of CDK4 protein was assayed by measuring the phosphorylation of Rb protein. A truncated Rb protein (residues 773-928 of the native retinoblastoma protein, fused to glutathione S-transferase to facilitate purification) was used as the phosphoryl acceptor. The assay conditions were 100 mM HEPES (N-[2-hydroxyethyl]piperzine-N′-[2-ethanesulfonic acid]), pH 7.5, 0.5 μM GST-Rb protein, 1 μCi/mL [^33P]-ATP (1 nM-20 μM), 5-20 mM MgCl2, 2.5 mM EDTA, 1 mM dithiothreitol, 0.2 mg/mL bovine serum albumin, 2% (v/v) dimethyl sulfoxide (DMSO), CDK4 enzyme (5-50 nM) in a final volume of 50 μL Reactions were incubated for time periods of 10-60 min at 30° C. and terminated by the addition of 50 μL quench (1 mM ATP/100 mM EDTA, pH 7.0). Detection of protein phosphorylation was accomplished by scintillation counting following collection of protein in 96 well plates coated with Glutathione or trapping of protein onto phosphocellulose filters. Counts detected by these methodologies minus the appropriate background were assumed to be proportional to the reaction initial rates. […] IC50s were determined by a least squares fit to the equation CPM=Vmax*(1-([I]/(K+[I])))+nsb, or pIC50s were determined by a fit to the equation CPM=nsb+(Vmax−nsb)/(1+(x/10^x−pIC50)), where nsb are the background counts.

CDK2 = CDK2 (Homo sapiens, UniProt P24941); test: CDK2 substrate phosphorylation assay (biotinylated peptide, [g-32P]ATP); type: biochemical; settings: read-out: CDK2 inhibition
Method: CDK2 was expressed utilizing a baculovirus expression system and was partially purified to comprise 20-80% of total protein, with no detectable competing reactions present. […] The buffer employed in enzyme assay was 100 mM HEPES pH 7.5 containing 0.1 mg/mL BSA and 5% DMSO. Inhibitors were diluted in 100% DMSO prior to addition into the assay. Detection of peptide phosphorylation was accomplished by scintillation counting following either collection of peptide onto phosphocellulose filters (for reactions stopped with acetic acid), collection of peptide in wells of 96 well plates coated with Streptavidin (Pierce) (reactions were stopped with EDTA), or addition of Avidin coated Scintillant impregnated beads (Scintillation Proximity Assays from Amersham, reactions were stopped with EDTA). […] Radioactivity was determined by liquid scintillation counting.

[2] = system: chemotherapy-induced alopecia; test: Neonatal rat model of chemotherapy-induced alopecia; type: in vivo, Sprague Dawley rats; settings: compounds in 100% DMSO applied topically to the scalp prior to chemotherapy; scored at day 21
Excerpt: Animal Model for Chemoprotection
Neonatal rat model of chemotherapy-induced alopecia: Time-pregnant female Sprague Dawley rats were purchased from Charles River Breeding Laboratories. Rat pups born on the same day were randomized at birth to 15 or 16 pups/mom/cage and were housed with moms during the study period. Each experimental group consisted of either 5 or 8 rats. For the etoposide model of CIA, rat pups received etoposide (VePesid, Bristol Laboratories Oncology Products, Princeton, N.J.) 6 mg/kg, ip, at 13 days of age (23). […] Compounds were formulated in 100% DMSO and applied topically to the scalp, 50 μL per application. Pups were treated with two topical applications of compounds 10 hours and 4 hours (t=−10, −4 hours) on both days 12 and 13 prior to chemotherapy administration. Pups were separated from mom during the topical application dosing period to prevent grooming and removal of compound. […] Inhibitor efficacy data was analyzed by comparing the % of drug-treated responders and the % of vehicle-treated responders. The amount of hair present on rat scalp at day 21 were scored and averaged for each inhibitor treated rat and ranked as +, ++ and +++.

Sequence of Cyclin D1 and cyclin-dependent kinase 4 (CDK4) (P11802 whole entry, species assumed): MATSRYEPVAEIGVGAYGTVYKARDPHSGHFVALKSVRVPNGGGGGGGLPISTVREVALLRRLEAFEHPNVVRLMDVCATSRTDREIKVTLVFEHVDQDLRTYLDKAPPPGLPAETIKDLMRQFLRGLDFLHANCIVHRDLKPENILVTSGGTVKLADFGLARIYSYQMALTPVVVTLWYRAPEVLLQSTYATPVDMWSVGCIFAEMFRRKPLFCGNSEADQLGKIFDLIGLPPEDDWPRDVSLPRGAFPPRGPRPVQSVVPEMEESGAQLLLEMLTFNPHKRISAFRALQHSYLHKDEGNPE
Sequence of Cyclin D1 and cyclin-dependent kinase 4 (CDK4) (P24385 whole entry partner, species assumed): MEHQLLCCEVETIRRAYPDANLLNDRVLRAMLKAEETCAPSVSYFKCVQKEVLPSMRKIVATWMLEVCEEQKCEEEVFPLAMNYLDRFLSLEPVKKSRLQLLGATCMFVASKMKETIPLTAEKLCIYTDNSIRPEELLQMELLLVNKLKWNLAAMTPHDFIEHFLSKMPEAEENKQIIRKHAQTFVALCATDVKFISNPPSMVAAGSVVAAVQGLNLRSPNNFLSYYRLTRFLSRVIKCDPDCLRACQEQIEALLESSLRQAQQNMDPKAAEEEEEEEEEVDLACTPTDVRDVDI

Row | Structure (SMILES) | IC50 [1] | IC50 (CDK2) | Rank (amount of hair present on rat scalp at day 21) [2]
1 | c1cnn2ncc(-c3ccnc(NC4CC4)n3)c2c1 [Example 1, N-Cyclopropyl-4-pyrazolo[1,5-b]pyridazin-3-yl-2-pyrimidinamine] | < 100 nM | – | –
2 | Clc1ccc(Nc2nccc(-c3cnn4ncccc34)n2)cc1 [Example 5, N-(4-Chlorophenyl)pyrazolo[1,5-b]pyridazin-3-yl-2-pyrimidinamine] | < 100 nM | < 100 nM | –
3 | N#Cc1cccc(Nc2nccc(-c3cnn4ncccc34)n2)c1 [Example 7, 3-[(4-Pyrazolo[1,5-b]pyridazin-3-yl-2-pyrimidinyl)amino]benzonitrile] | < 100 nM | < 100 nM | +++
4 | FC(F)(F)c1cccc(Nc2nccc(-c3cnn4ncccc34)n2)c1 [Example 9, 4-Pyrazolo[1,5-b]pyridazin-3-yl-N-[3-(trifluoromethyl)phenyl]-2-pyrimidinamine] | < 100 nM | < 100 nM | ++
5 | O=[N+]([O-])c1cccc(Nc2nccc(-c3cnn4ncccc34)n2)c1 [Example 10, N-(3-Nitrophenyl)-4-pyrazolo[1,5-b]pyridazin-3-yl-2-pyrimidinamine] | < 100 nM | < 100 nM | –
6 | c1cc(Nc2nccc(-c3cnn4ncccc34)n2)cc(-c2cnco2)c1 [Example 14, N-[3-(1,3-Oxazol-5-yl)phenyl]-4-pyrazolo[1,5-b]pyridazin-3-yl-2-pyrimidinamine] | < 100 nM | < 100 nM | +
7 | O=C1CCCN1CCCNc1nccc(-c2cnn3ncccc23)n1 [Example 22, 1-{3-[(Pyrazolo[1,5-b]pyridazin-3-yl-2-pyrimidinyl)amino]propyl}-2-pyrrolidinone] | < 100 nM | < 100 nM | –
8 | CN1CCN(c2ccc(Nc3nccc(-c4cnn5ncccc45)n3)cc2Cl)CC1 [Example 23, N-[3-Chloro-4-(4-methyl-1-piperazinyl)phenyl]-4-pyrazolo[1,5-b]pyridazin-3-yl-2-pyrimidinamine] | < 100 nM | < 100 nM | +++
9 | Cc1cc(Nc2nccc(-c3cnn4ncccc34)n2)ccc1N1CCN(C)CC1 [Example 25, N-[3-Methyl-4-(4-methyl-1-piperazinyl)phenyl]-4-pyrazolo[1,5-b]pyridazin-3-yl-2-pyrimidinamine] | < 100 nM | < 100 nM | –
10 | COc1ccc2c(-c3ccnc(NC4CC4)n3)cnn2n1 [Example 36, N-Cyclopropyl-4-(6-methoxypyrazolo[1,5-b]pyridazin-3-yl)-2-pyrimidinamine] | < 1000 nM | < 1000 nM | –
11 | Clc1ccccc1-c1ccc2c(-c3ccnc(NC4CC4)n3)cnn2n1 [Example 42, 4-[6-(2-Chlorophenyl)pyrazolo[1,5-b]pyridazin-3-yl]-N-cyclopropyl-2-pyrimidinamine] | < 1000 nM | < 1000 nM | –
12 | CN(C)c1ccc(Nc2nccc(-c3cnn4nc(N5CCOCC5)ccc34)n2)cc1 [Example 53, N-^1-N^1-Dimethly-N^4-{4-[6-(4-morpholinyl)pyrazolo[1,5-b]pyridazin-3-yl]-2-pyrimidinyl}-1,4-benzenediamine] | < 100 nM | < 1000 nM | –
13 | COc1cc(Nc2nccc(-c3cnn4ncccc34)n2)cc(C(F)(F)F)c1 [Example 57] | – | – | +
14 | NS(=O)(=O)c1ccc(Nc2nccc(-c3cnn4ncccc34)n2)cc1 [Example 62, N-(4-aminosulfonylphenyl)-4-pyrazolo[1,5-b]pyridazin-3-yl-2-pyrimidinamine] | – | < 100 nM | –
